Assay results reported in paper PMC11435890, “Enzymatic Hydrolysis of Resorcylic Acid Lactones by an Aeromicrobium sp” (Toxins, 2024).

Tests used:
ScHsp82 (ScHSP82) = molecular target: T1, ScHsp82 (ScHSP82) (Saccharomyces cerevisiae, UniProt P02829); experiment: malachite green ATPase inhibition assay; format: biochemical; conditions: 1 mM ATP, 4% DMSO, 100 mM Tris-HCl pH 7.5, 20 mM KCl, 6 mM MgCl2, 37 °C, 3 h
T1 construct: gene HSP82; Ni-NTA and gel permeation

[1] = system: T2, RALH (resorcylic acid lactone hydrolase); experiment: LC-HRMS quantification of hydrolyzed product (HZEN), Michaelis-Menten fit; format: biochemical, Aeromicrobium sp. LRDC-1; conditions: 50 mM Tris-HCl pH 8.0, 1% BSA, 37 °C, 25 nM RALH, 20 min
T2 construct: recombinant, codon-optimized, E. coli BL21(DE3); N-terminal His6-MBP tag removed with TEV protease; homologue alignment 303/316 residues (RALH vs ZenH); catalytic triad Ser117, Asp142, His292

[2] = system: T2, RALH (resorcylic acid lactone hydrolase); experiment: LC-HRMS quantification of hydrolyzed product (HRAD), Michaelis-Menten fit; format: biochemical, Aeromicrobium sp. LRDC-1; conditions: 50 mM Tris-HCl pH 8.0, 1% BSA, 37 °C, 25 nM RALH, 5 min

T1 sequence (P02829 whole entry): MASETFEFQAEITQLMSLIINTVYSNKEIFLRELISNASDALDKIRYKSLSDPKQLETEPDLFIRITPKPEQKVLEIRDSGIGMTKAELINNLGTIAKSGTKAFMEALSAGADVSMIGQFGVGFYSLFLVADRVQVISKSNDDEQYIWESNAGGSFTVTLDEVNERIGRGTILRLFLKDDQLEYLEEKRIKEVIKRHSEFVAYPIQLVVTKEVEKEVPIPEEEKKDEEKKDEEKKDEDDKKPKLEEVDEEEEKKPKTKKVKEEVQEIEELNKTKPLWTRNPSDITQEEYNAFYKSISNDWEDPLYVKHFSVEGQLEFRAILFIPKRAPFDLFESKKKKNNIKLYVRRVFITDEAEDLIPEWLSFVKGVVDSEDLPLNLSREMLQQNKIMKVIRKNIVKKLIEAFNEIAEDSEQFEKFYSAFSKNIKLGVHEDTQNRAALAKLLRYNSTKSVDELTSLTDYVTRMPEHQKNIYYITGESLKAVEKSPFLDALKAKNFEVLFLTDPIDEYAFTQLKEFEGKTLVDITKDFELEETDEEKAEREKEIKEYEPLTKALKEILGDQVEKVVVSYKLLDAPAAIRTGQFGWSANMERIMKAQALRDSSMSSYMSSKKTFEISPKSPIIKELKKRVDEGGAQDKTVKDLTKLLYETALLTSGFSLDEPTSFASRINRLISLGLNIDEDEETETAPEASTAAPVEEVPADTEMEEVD

Compound	% decrease in ATPase activity at 50 μM (ScHsp82 (ScHSP82))	Km [1]	Km [2]
C[C@H]1CCCC(=O)CCC/C=C/c2cc(O)cc(O)c2C(=O)O1 [I, ZEN]	53%	24 µM	
C[C@@H]1C[C@H]2O[C@@H]2/C=C\C=C\C(=O)Cc2c(Cl)c(O)cc(O)c2C(=O)O1 [III, RAD]			1200 µM
